{"source": "patent US20090181972A1", "about": "“Novel Inhibitors of Cysteine Proteases, the Pharmaceutical Compositions Thereof and their Therapeutic Applications” (priority 2005, published 2009)", "key": {"[1]": {"tested_on": "PC-3 prostate cancer cells", "test": "PC3 cell viability and proliferation assay (MTS)", "assay_type": "cell-based", "conditions": "Homo sapiens, PC-3, 72 hours incubation, mean of three independent experiments, read-out: PC3 GI50 D3", "procedure": "PC-3 prostate cancer cells were obtained from ATCC, and maintained in F-12K medium containing 7% FBS and 1% penicillin/streptomycin. Cells were incubated at 37° C. in a humidified atmosphere containing 5% CO2.\n(§1) Cell viability was assayed using the MTS technique in 96-well culture plates (CellTiter 96® Aqueous Non-Radioactive Cell Proliferation Assay, Promega) according to the manufacturer's instructions. MTS (3-(4,5-dimethyl-thiazol-2-yl)-5-(3-carboxymethoxyphenyl)-2-(4-sulfophenyl)-2H-tetrazolium) is a MTT-derived tetrazolium that is reduced in metabolically active cells into a soluble, cell-permeant formazan. The amount of formazan, detected by its absorbance at 492 nm is proportional to the number of living, metabolically active cells.\n(§2) 2×10^3 PC3 cells were seeded per well. 24 hours later, the medium was changed and the cells treated in triplicate with the following concentrations of each compound: 10 μM-3.33 μM-1.11 μM-370 nM-123 nM-41 nM-14 nM and 5 nM. The compounds were diluted in 100% DMSO, whose final concentration on cells was kept at 0.5%.\n(§3) Cells were incubated with the compounds for 72 hours, and their viability then assayed by the addition of MTS for 2 hours. Absorbance at 492 nm was measured directly from the 96-well culture plates. GI50 (Growth Inhibition 50) concentrations for each compound were calculated using a sigmoidal variable slope fit (Prism 4.0, Graphpad Softwares). Values represent mean of three independent experiments."}, "[2]": {"tested_on": "HCT116 colon cancer cells", "test": "HCT116 cell viability and proliferation assay (MTS)", "assay_type": "cell-based", "conditions": "Homo sapiens, HCT-116, 72 hours incubation, mean of three independent experiments, read-out: HCT116 GI50 D3", "procedure": "HCT116 colon cancer cells were obtained from ATCC (American Type Culture Collection), and maintained in Mc Coy's 5A medium containing 10% FBS, 3 mM glutamine and 1% penicillin/streptomycin. Cells were incubated at 37° C. in a humidified atmosphere containing 5% CO2.\nas §1, with “(3-(4,5-dimethyl-thiazol-2-yl)-5-(3-carboxymethoxyphenyl)-2-(4-sulfophenyl)-2H-tetra-zolium)” for “(3-(4,5-dimethyl-thiazol-2-yl)-5-(3-carboxymethoxyphenyl)-2-(4-sulfophenyl)-2H-tetrazolium)”\nas §2, with “10^3 HCT116” for “2×10^3 PC3”\nas §3, with “G150” for “GI50”"}, "[3]": {"biological_target": "T1, USP7 (Homo sapiens, UniProt Q93009)", "T1 construct": "His tag (pFastBac-HT vector) (N); made in house; host or cells: Sf9 or High Five insect cells (baculovirus)", "T1 sequence (Q93009 whole entry)": "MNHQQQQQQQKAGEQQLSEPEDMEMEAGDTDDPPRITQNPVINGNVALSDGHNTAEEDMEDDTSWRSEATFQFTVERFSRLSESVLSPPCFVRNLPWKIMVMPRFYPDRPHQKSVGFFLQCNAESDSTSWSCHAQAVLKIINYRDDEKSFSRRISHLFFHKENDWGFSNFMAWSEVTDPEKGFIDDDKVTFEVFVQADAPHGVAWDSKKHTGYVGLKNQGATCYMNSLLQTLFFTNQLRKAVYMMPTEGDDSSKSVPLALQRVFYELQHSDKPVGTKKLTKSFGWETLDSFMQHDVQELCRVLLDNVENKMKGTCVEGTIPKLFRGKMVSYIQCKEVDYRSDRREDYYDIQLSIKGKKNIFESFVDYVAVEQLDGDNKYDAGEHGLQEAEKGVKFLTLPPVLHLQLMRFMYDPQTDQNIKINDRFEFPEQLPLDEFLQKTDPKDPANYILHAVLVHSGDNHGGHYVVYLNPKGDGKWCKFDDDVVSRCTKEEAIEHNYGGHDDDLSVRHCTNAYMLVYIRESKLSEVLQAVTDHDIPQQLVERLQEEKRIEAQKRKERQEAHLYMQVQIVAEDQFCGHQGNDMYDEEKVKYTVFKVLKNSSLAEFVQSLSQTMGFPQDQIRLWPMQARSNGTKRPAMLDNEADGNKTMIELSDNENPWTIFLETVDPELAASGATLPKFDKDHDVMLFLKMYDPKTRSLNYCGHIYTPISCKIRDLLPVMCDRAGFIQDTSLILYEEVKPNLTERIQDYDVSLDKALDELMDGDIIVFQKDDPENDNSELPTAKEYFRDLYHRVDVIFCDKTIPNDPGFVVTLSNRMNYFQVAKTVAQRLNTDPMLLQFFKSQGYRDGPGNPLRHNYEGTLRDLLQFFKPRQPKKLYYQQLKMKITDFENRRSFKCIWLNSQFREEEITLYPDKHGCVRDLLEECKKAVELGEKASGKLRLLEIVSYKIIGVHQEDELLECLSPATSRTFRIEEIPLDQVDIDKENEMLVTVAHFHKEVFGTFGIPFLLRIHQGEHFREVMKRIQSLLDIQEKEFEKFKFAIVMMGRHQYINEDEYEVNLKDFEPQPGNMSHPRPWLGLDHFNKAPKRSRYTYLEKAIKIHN", "test": "USP7 activity assay", "assay_type": "biochemical", "conditions": "400 nM Ub-AMC, 152 pM enzyme; pre-incubated 30 minutes at 25° C., 60 minutes at 37° C.; sigmoidal fit; read-out: USP 7", "from_the_text": "The cDNA encoding USP7 was obtained by PCR amplification from placenta mRNA. USP7 cDNA was subcloned by PCR into a baculovirus expression vector (pFastBac-HT; Invitrogen). A cDNA encoding a mutated USP7 was generated by mutagenic PCR. The corresponding protein encodes a cysteine to alanine substitution at residue 223. The sequences were ascertained by sequencing of the entire open reading frame. Bacmids encoding USP7 were generated following DH10bac transposition. The corresponding bacmids were transfected into insect cells (Sf9). Viruses were recovered from culture supernatant and amplified twice. Insect cells (Sf9 or High Five; lnvitrogen) were infected for 72 hours. Total cell lysates were harvested and lyzed in lysis buffer (Tris HCl 50 mM pH 7.6; 0.75 % NP40; 500 mM NaCl; 10% glycerol; 1 mM DTT; 10 mM imidazole; Protease Inhibitor Cocktail; AEBSF 20 μg.ml^−1; Aprotinin 10 μg.ml^−1). Proteins were affinity purified on metal affinity resins (Talon Metal affinity resin; BD Biosciences). Bound materials were extensively washed in wash buffer (50 mM Sodium Phosphate pH 7.0; 300 mM NaCl; 10 mM imidazole; 0.5% Triton X-100; 10% glycerol) and eluted from the resin in 250 mM imidazole-containing wash buffer. Proteins were dialyzed in dialysis buffer (Tris HCl pH 7.6 20 mM; NaCl 200 mM; DTT 1 mM; EDTA 1 mM; 10% Glycerol). Proteins purifications were analyzed on 4-12% NuPAGE (Invitrogen).\nUSP7 was diluted in USP buffer (50 mM Tris HCl; 0.5 mM EDTA; 5 mM DTT; 0.01 % Triton X-100; Bovine Serum Albumin 0.05 mg.ml^−1 pH 7.6). Compounds stocks (100 mM) were stored at −20° C. in DMSO. Compounds were tested at the following final concentrations: 100 μM; 33.3 μM; 11.1 μM; 3.7 μM; 1.23 μM; 412 nM; 137 nM; 45.7 nM; 15.2 nM; 5 nM.\n(§4) Reactions were performed as duplicates in Black LJL 96 well plates (HE microplates; Molecular Devices; 20 μl final reaction volume). The substrate concentration for USP7 was 400 nM Ub-AMC (Chem. Biol., 2003, 10, p. 837-846) (Boston Biochem). The concentrations of the enzyme (USP7) in specificity assays was 152 pM. The concentrations were determined in order to perform specificity assays under initial velocities at fixed substrate concentration. Compounds were pre-incubated with enzymes for 30 minutes at 25° C. Reactions were initiated by addition of substrate to the plates containing the enzymes (+/− compounds) diluted in assay buffer. Reactions were incubated for 60 minutes at 37° C. Reactions were stopped by adding acetic acid (100 mM final). Readings were performed on a Pherastar Fluorescent Reader (BMG). λ Emission 380 nm; λ Excitation=460 nm. Data (mean values +/− standard deviation) were analyzed as % of control (no compound) and plotted as percentage versus the Log of the compound concentration using GraphPad (Prism). Data were fitted to a sigmoidal model (variable slope)."}, "[4]": {"biological_target": "T2, USP5 (Homo sapiens, UniProt P45974)", "T2 sequence (P45974 1-858)": "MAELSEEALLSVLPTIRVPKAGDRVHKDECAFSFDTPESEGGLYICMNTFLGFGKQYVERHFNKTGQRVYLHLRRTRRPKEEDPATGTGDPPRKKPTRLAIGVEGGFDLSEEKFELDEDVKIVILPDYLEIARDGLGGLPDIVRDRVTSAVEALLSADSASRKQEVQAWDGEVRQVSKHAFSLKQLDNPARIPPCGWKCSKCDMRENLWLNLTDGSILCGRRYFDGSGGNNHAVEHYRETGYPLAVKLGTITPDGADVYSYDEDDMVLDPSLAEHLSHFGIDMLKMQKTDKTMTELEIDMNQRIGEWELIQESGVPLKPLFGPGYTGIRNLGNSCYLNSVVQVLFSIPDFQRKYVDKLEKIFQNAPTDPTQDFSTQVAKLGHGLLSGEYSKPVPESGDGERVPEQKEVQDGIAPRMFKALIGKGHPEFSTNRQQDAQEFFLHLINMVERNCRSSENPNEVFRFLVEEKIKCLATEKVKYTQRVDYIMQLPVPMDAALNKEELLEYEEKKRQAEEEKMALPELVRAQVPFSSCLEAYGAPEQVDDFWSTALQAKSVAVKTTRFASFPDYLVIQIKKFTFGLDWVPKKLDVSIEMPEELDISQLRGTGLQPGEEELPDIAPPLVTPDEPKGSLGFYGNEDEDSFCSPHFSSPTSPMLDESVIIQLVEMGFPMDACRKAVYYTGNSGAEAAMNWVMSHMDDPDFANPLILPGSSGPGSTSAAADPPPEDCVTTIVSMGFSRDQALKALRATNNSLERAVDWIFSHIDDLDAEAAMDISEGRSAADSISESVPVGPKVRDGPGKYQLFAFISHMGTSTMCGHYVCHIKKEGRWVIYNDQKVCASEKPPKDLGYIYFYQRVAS", "test": "USP5 activity assay", "assay_type": "biochemical", "conditions": "400 nM Ub-AMC, 300 pM enzyme; pre-incubated 30 minutes at 25° C., 60 minutes at 37° C.; sigmoidal fit; read-out: USP 5", "procedure": "USP5 was diluted in USP buffer (50 mM Tris HCl; 0.5 mM EDTA; 5 mM DTT; 0.01% Triton X-100; Bovine Serum Albumin 0.05 mg.ml^−1 pH 7.6). Compounds stocks (100 mM) were stored at -20° C. in DMSO.\nas §4, with “USP5” for “USP7”, “Ub-AMC” for “Ub-AMC (Chem. Biol., 2003, 10, p. 837-846)”, “(USP5)” for “(USP7)”, “300” for “152”"}}, "data": [{"molecule": "Cc1nnc2nc3c(nn12)-c1ccccc1C3=O", "note": "[Example 1b/B, 3-Methyl-1,2,3a,4,10-pentaaza-cyclopenta[b]fluoren-9-one]", "values": [{"measurement": "GI50", "setting": "[1]", "result": 0.334, "unit": "µM"}, {"measurement": "GI50", "setting": "[2]", "result": 0.084, "unit": "µM"}]}, {"molecule": "Nc1nnc2nc3c(nn12)C(=O)c1ccccc1-3", "note": "[Example 1c/A, 1-Amino-2,3,4,10,10a-pentaaza-cyclopenta[b]fluoren-9-one]", "values": [{"measurement": "GI50", "setting": "[2]", "result": 8.5, "unit": "µM"}]}, {"molecule": "CCc1nnc2nc3c(nn12)C(=O)c1ccccc1-3", "note": "[Example 1d/A, 1-Ethyl-2,3,4,10,10a-pentaaza-cyclopenta[b]fluoren-9-one]", "values": [{"measurement": "GI50", "setting": "[1]", "result": 5.4, "unit": "µM"}, {"measurement": "GI50", "setting": "[2]", "result": 1.4, "unit": "µM"}]}, {"molecule": "CCc1nnc2nc3c(nn12)-c1ccccc1C3=O", "note": "[Example 1d/B, 3-Ethyl-1,2,3a,4,10-pentaaza-cyclopenta[b]fluoren-9-one]", "values": [{"measurement": "GI50", "setting": "[1]", "result": 0.256, "unit": "µM"}, {"measurement": "GI50", "setting": "[2]", "result": 0.059, "unit": "µM"}]}, {"molecule": "CCCc1nnc2nc3c(nn12)C(=O)c1ccccc1-3", "note": "[Example 1e/A, 1-Propyl-2,3,4,10,10a-pentaaza-cyclopenta[b]fluoren-9-one]", "values": [{"measurement": "GI50", "setting": "[1]", "result": 4.2, "unit": "µM"}, {"measurement": "IC50", "setting": "[3]", "result": "> 100", "unit": "µM"}, {"measurement": "GI50", "setting": "[2]", "result": 3.1, "unit": "µM"}]}, {"molecule": "CCCc1nnc2nc3c(nn12)-c1ccccc1C3=O", "note": "[Example 1e/B, 3-Propyl-1,2,3a,4,10-pentaaza-cyclopenta[b]fluoren-9-one]", "values": [{"measurement": "GI50", "setting": "[1]", "result": 0.175, "unit": "µM"}, {"measurement": "GI50", "setting": "[2]", "result": 0.067, "unit": "µM"}]}, {"molecule": "CCCCc1nnc2nc3c(nn12)C(=O)c1ccccc1-3", "note": "[Example 1f/A, 1-Butyl-2,3,4,10,10a-pentaaza-cyclopenta[b]fluoren-9-one]", "values": [{"measurement": "GI50", "setting": "[1]", "result": 3.8, "unit": "µM"}, {"measurement": "GI50", "setting": "[2]", "result": 1.36, "unit": "µM"}]}, {"molecule": "CCCCc1nnc2nc3c(nn12)-c1ccccc1C3=O", "note": "[Example 1f/B, 3-Butyl-1,2,3a,4,10-pentaaza-cyclopenta[b]fluoren-9-one]", "values": [{"measurement": "GI50", "setting": "[1]", "result": 0.096, "unit": "µM"}, {"measurement": "GI50", "setting": "[2]", "result": 0.04, "unit": "µM"}]}, {"molecule": "CC(C)Cc1nnc2nc3c(nn12)C(=O)c1ccccc1-3", "note": "[Example 1g/A, 1-Isobutyl-2,3,4,10,10a-pentaaza-cyclopenta[b]fluoren-9-one]", "values": [{"measurement": "GI50", "setting": "[1]", "result": 4, "unit": "µM"}, {"measurement": "IC50", "setting": "[3]", "result": "> 100", "unit": "µM"}, {"measurement": "GI50", "setting": "[2]", "result": 3, "unit": "µM"}]}, {"molecule": "CC(C)Cc1nnc2nc3c(nn12)-c1ccccc1C3=O", "note": "[Example 1g/B, 3-Isobutyl-1,2,3a,4,10-pentaaza-cyclopenta[b]fluoren-9-one]", "values": [{"measurement": "GI50", "setting": "[1]", "result": 0.162, "unit": "µM"}, {"measurement": "GI50", "setting": "[2]", "result": 0.053, "unit": "µM"}]}, {"molecule": "O=C1c2ccccc2-c2nn3c(CO)nnc3nc21", "note": "[Example 1h/B, 3-Hydroxymethyl-1,2,3a,4,10-pentaaza-cyclopenta[b]fluoren-9-one]", "values": [{"measurement": "GI50", "setting": "[1]", "result": 1.44, "unit": "µM"}, {"measurement": "GI50", "setting": "[2]", "result": 0.323, "unit": "µM"}]}, {"molecule": "COCc1nnc2nc3c(nn12)C(=O)c1ccccc1-3", "note": "[Example 1i/A, 1-Methoxymethyl-2,3,4,10,10a-pentaaza-cyclopenta[b]fluoren-9-one]", "values": [{"measurement": "GI50", "setting": "[1]", "result": 1.75, "unit": "µM"}, {"measurement": "IC50", "setting": "[3]", "result": "> 100", "unit": "µM"}, {"measurement": "GI50", "setting": "[2]", "result": 1.28, "unit": "µM"}]}, {"molecule": "COCc1nnc2nc3c(nn12)-c1ccccc1C3=O", "note": "[Example 1i/B, 3-Methoxymethyl-1,2,3a,4,10-pentaaza-cyclopenta[b]fluoren-9-one]", "values": [{"measurement": "GI50", "setting": "[1]", "result": 0.238, "unit": "µM"}, {"measurement": "GI50", "setting": "[2]", "result": 0.065, "unit": "µM"}]}, {"molecule": "O=C1c2ccccc2-c2nc3nnc(C4CC4)n3nc21", "note": "[Example 1j/A, 1-Cyclopropyl-2,3,4,10,10a-pentaaza-cyclopenta[b]fluoren-9-one]", "values": [{"measurement": "IC50", "setting": "[4]", "result": 3.1, "unit": "µM"}]}, {"molecule": "Cc1nnc2nc3c(nn12)-c1ccc(Cl)cc1C3=O", "note": "[Example 3/B, 7-Chloro-3-methyl-1,2,3a,4,10-pentaaza-cyclopenta[b]fluoren-9-one]", "values": [{"measurement": "GI50", "setting": "[1]", "result": 0.286, "unit": "µM"}, {"measurement": "GI50", "setting": "[2]", "result": 0.098, "unit": "µM"}]}]}
